Measurements: patent US9708314B2, “Heterocyclic amide compound” (NISSAN CHEMICAL INDUSTRIES, LTD., priority 2013, dated 2017)

Tests used:
Assay type in all cases: in vivo
Glycine max = assay: Test Example 4: effect on crop by application to foliage (diluvial soil, plastic box); details: application to foliage
How it was run: (§1)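 Seeds sown in sterilized diluvial soil, covered ~1.5 cm, grown 14 days in greenhouse at 25° C. to 30° C. Emulsion formulation diluted in water to set rate (g/ha) and sprayed onto stems and leaves. Effect scored visually 3 weeks later on 0–5 scale (5 = ≥90% herbicidal ratio, 0 = ≤5%).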

[1] = tested on: directly sowed Oryza sativa; assay: as above; details: application to foliage
How it was run: as §1

Zea mays = assay: as above; details: application to foliage
How it was run: as §1

[2] = tested on: Beta vulgaris ssp. vulgaris; assay: as above; details: application to foliage
How it was run: as §1

Brassica campestris L. = assay: as above; details: application to foliage
How it was run: as §1

Triticum aestivum = assay: as above; details: application to foliage
How it was run: as §1

Veronica persica = assay: Test Example 4: herbicidal effect by application to foliage (diluvial soil, plastic box); details: application to foliage
How it was run: as §1

Digitaria ciliaris = assay: as above; details: application to foliage
How it was run: as §1

[3] = tested on: Echinochloa crus-galli var. crus-galli; assay: as above; details: application to foliage
How it was run: as §1

Stellaria media = assay: as above; details: application to foliage
How it was run: as §1

Alopecurus myosuroides = assay: as above; details: application to foliage
How it was run: as §1

Chenopodium album = assay: as above; details: application to foliage
How it was run: as §1

Apera spica-venti. = assay: as above; details: application to foliage
How it was run: as §1

Lolium multiflorum Lam. = assay: as above; details: application to foliage
How it was run: as §1

Amaranthus retroflexus = assay: as above; details: application to foliage
How it was run: as §1

Avena fatua = assay: as above; details: application to foliage
How it was run: as §1

Setaria viridis = assay: as above; details: application to foliage
How it was run: as §1

Galium spurium = assay: as above; details: application to foliage
How it was run: as §1

Abutilon theophrasti = assay: as above; details: application to foliage
How it was run: as §1

Scirpus juncoides = assay: Test Example 2: herbicidal activity, application during weed generation in submerged conditions; details: Eighteenth Table
How it was run: (§2)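 Scored three weeks post-application on a 0–5 scale (5: ≥90% herbicidal ratio, almost withered; 0: ≤5%). Plants raised from mixed-sown seed in submerged alluvial soil (4 cm water), 25–30 °C greenhouse; water-diluted emulsion applied onto water surface at one- to two-leaf stage, dose in g/ha.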

[4] = tested on: Echinochloa oryzacola Vasing.; assay: as above; details: Eighteenth Table
How it was run: as §2

[5] = application herbicide amount 320 g/ha
[6] = application herbicide amount 260 g/ha

Cn1nnnc1NC(=O)c1ccc(C(F)(F)F)n2c(CO)nnc12 [2-108]
effect on crop, c (Glycine max) (Glycine max; 320 g/ha): 0 (Herbicidal ratio of 5% or less (almost no effect)) | effect on crop, d (directly sowed Oryza sativa) ([1]; 320 g/ha): 4 (Herbicidal ratio of 70% or more and less than 90%) | effect on crop, b (Zea mays) (Zea mays; 320 g/ha): 4 (Herbicidal ratio of 70% or more and less than 90%) | effect on crop, f (Beta vulgaris ssp. vulgaris) ([2]; 320 g/ha): 5 (Herbicidal ratio of 90% or more (almost completely withered)) | effect on crop, g (Brassica campestris L.) (Brassica campestris L.; 320 g/ha): 5 (Herbicidal ratio of 90% or more (almost completely withered)) | effect on crop, e (Triticum aestivum) (Triticum aestivum; 320 g/ha): 1 (Herbicidal ratio of 5% or more and less than 20%) | herbicidal effect, R (Veronica persica) (Veronica persica; 320 g/ha): 5 (Herbicidal ratio of 90% or more (almost completely withered)) | herbicidal effect, F (Digitaria ciliaris) (Digitaria ciliaris; 320 g/ha): 4 (Herbicidal ratio of 70% or more and less than 90%) | herbicidal effect, H (Echinochloa crus-galli var. crus-galli) ([3]; 320 g/ha): 5 (Herbicidal ratio of 90% or more (almost completely withered)) | herbicidal effect, P (Stellaria media) (Stellaria media; 320 g/ha): 5 (Herbicidal ratio of 90% or more (almost completely withered)) | herbicidal effect, J (Alopecurus myosuroides) (Alopecurus myosuroides; 320 g/ha): 0 (Herbicidal ratio of 5% or less (almost no effect)) | herbicidal effect, O (Chenopodium album) (Chenopodium album; 320 g/ha): 5 (Herbicidal ratio of 90% or more (almost completely withered)) | herbicidal effect, L (Apera spica-venti.) (Apera spica-venti.; 320 g/ha): 0 (Herbicidal ratio of 5% or less (almost no effect)) | herbicidal effect, K (Lolium multiflorum Lam.) (Lolium multiflorum Lam.; 320 g/ha): 0 (Herbicidal ratio of 5% or less (almost no effect)) | herbicidal effect, N (Amaranthus retroflexus) (Amaranthus retroflexus; 320 g/ha): 5 (Herbicidal ratio of 90% or more (almost completely withered)) | herbicidal effect, I (Avena fatua) (Avena fatua; 320 g/ha): 1 (Herbicidal ratio of 5% or more and less than 20%) | herbicidal effect, G (Setaria viridis) (Setaria viridis; 320 g/ha): 3 (Herbicidal ratio of 40% or more and less than 70%) | herbicidal effect, Q (Galium spurium) (Galium spurium; 320 g/ha): 4 (Herbicidal ratio of 70% or more and less than 90%) | herbicidal effect, M (Abutilon theophrasti) (Abutilon theophrasti; 320 g/ha): 5 (Herbicidal ratio of 90% or more (almost completely withered)) | B (Scirpus juncoides) herbicidal ratio grade (Scirpus juncoides; [5]): 1 (Herbicidal ratio of 5% or more and less than 20%) | A (Echinochloa oryzicola Vasing.) herbicidal ratio grade [4, 5]: 0 (Herbicidal ratio of 5% or less (almost no effect))

Cn1nnnc1NC(=O)c1ccc(C(F)(F)F)n2c(C=O)nnc12 [2-109]
effect on crop, c (Glycine max) (Glycine max; 256 g/ha): 0 (Herbicidal ratio of 5% or less (almost no effect)) | effect on crop, d (directly sowed Oryza sativa) ([1]; 256 g/ha): 4 (Herbicidal ratio of 70% or more and less than 90%) | effect on crop, b (Zea mays) (Zea mays; 256 g/ha): 1 (Herbicidal ratio of 5% or more and less than 20%) | effect on crop, f (Beta vulgaris ssp. vulgaris) ([2]; 256 g/ha): 5 (Herbicidal ratio of 90% or more (almost completely withered)) | effect on crop, g (Brassica campestris L.) (Brassica campestris L.; 256 g/ha): 4 (Herbicidal ratio of 70% or more and less than 90%) | effect on crop, e (Triticum aestivum) (Triticum aestivum; 256 g/ha): 1 (Herbicidal ratio of 5% or more and less than 20%) | herbicidal effect, R (Veronica persica) (Veronica persica; 256 g/ha): 5 (Herbicidal ratio of 90% or more (almost completely withered)) | herbicidal effect, F (Digitaria ciliaris) (Digitaria ciliaris; 256 g/ha): 3 (Herbicidal ratio of 40% or more and less than 70%) | herbicidal effect, H (Echinochloa crus-galli var. crus-galli) ([3]; 256 g/ha): 4 (Herbicidal ratio of 70% or more and less than 90%) | herbicidal effect, P (Stellaria media) (Stellaria media; 256 g/ha): 5 (Herbicidal ratio of 90% or more (almost completely withered)) | herbicidal effect, J (Alopecurus myosuroides) (Alopecurus myosuroides; 256 g/ha): 0 (Herbicidal ratio of 5% or less (almost no effect)) | herbicidal effect, O (Chenopodium album) (Chenopodium album; 256 g/ha): 5 (Herbicidal ratio of 90% or more (almost completely withered)) | herbicidal effect, L (Apera spica-venti.) (Apera spica-venti.; 256 g/ha): 0 (Herbicidal ratio of 5% or less (almost no effect)) | herbicidal effect, K (Lolium multiflorum Lam.) (Lolium multiflorum Lam.; 256 g/ha): 1 (Herbicidal ratio of 5% or more and less than 20%) | herbicidal effect, N (Amaranthus retroflexus) (Amaranthus retroflexus; 256 g/ha): 5 (Herbicidal ratio of 90% or more (almost completely withered)) | herbicidal effect, I (Avena fatua) (Avena fatua; 256 g/ha): 1 (Herbicidal ratio of 5% or more and less than 20%) | herbicidal effect, G (Setaria viridis) (Setaria viridis; 256 g/ha): 2 (Herbicidal ratio of 20% or more and less than 40%) | herbicidal effect, Q (Galium spurium) (Galium spurium; 256 g/ha): 3 (Herbicidal ratio of 40% or more and less than 70%) | herbicidal effect, M (Abutilon theophrasti) (Abutilon theophrasti; 256 g/ha): 5 (Herbicidal ratio of 90% or more (almost completely withered)) | B (Scirpus juncoides) herbicidal ratio grade (Scirpus juncoides; [6]): 1 (Herbicidal ratio of 5% or more and less than 20%) | A (Echinochloa oryzicola Vasing.) herbicidal ratio grade [4, 6]: 1 (Herbicidal ratio of 5% or more and less than 20%)
